Experimental data reported in patent US20160324149A1, “ADJUVANTS FOR PLANT GROWTH REGULATORS” (VERDESIAN LIFE SCINCES, LLC, priority 2014, published 2016).

System: soybean seedlings
Assay: Soybean seedling spray test, dry weight one week later
Type: in vivo
Conditions: for Mean Plant Dry Wt. / Total Dry Wt.: sprayed at 20 gallons per acre, harvested one week later
Protocol: In this test, soybean seedlings at true leaf emergence were sprayed with a series of aqueous test solutions at a rate of 20 gallons per acre. In those solutions including AVAIL®, use was made of AVAIL® for liquid phosphate fertilizers. The beans were then harvested one week later and were counted, dried, and weighed, and average weight per plant was determined.

In the case of C=C1C[C@]23C[C@@]1(O)CC[C@H]2[C@@]12C=C[C@H](O)[C@@](C)(C(=O)O1)[C@H]2[C@@H]3C(=O)O [gibberellic acid], the “Mean plant dry weight as gibberellic acid concentration increased” value (50-500 ppm) is reported as “the mean plant dry weight also increased”, the “Mean Plant Dry Wt.” value (50 ppm gibberellic acid) is reported as 1.594 g and the “Total Dry Wt.” value (50 ppm gibberellic acid) is reported as 17.53 g. For the same molecule, the “Mean Plant Dry Wt.” value (100 ppm gibberellic acid) was 1.808 g, the “Total Dry Wt.” value (100 ppm gibberellic acid) was 18.08 g and the “Mean Plant Dry Wt.” value (250 ppm gibberellic acid) was 1.718 g. The “Total Dry Wt.” value (250 ppm gibberellic acid) was 20.61 g, the “Mean Plant Dry Wt.” value (500 ppm gibberellic acid) was 2.280 g and the “Total Dry Wt.” value (500 ppm gibberellic acid) was 22.80 g.
